Test results reported in ChEMBL document CHEMBL3507680, “University of Dundee, Gates Library screen for HepG2 cell viability”.

Test: Human HepG2 cell viability assay in 384 well format
Type: toxicity, cell-based
Design: dose 125 nL, time 70.5 hour; cytotoxicity at 70.5 h: concentration not given beside the values
Conditions: HepG2 cells, read-out: Inhibition

Row | SMILES | cytotoxicity at 70.5 h [%]
1 | CN1CC(C(=O)NCc2cccnc2OCc2ccccc2)CC1=O (stereo not given) | -4.14
2 | CN1CC(C(=O)NCc2ccc(OCc3cccnc3)cc2)CC1=O (stereo not given) | 12.9
3 | Cc1nnc2n1CCN(CC(O)CN1CCC(C)CC1)C2 (stereo not given) | -2.86
4 | CCc1ccc(C(=O)NC(C)c2ccc(S(C)(=O)=O)c(F)c2)o1 (stereo not given) | 13.1
5 | CCN(C)CC1CCN(c2ncc(Br)cn2)C1 (stereo not given) | 9.92
6 | O=C1COc2cccc(OCc3ccccn3)c2N1 | -0.596
7 | CN(CCS(=O)(=O)c1cc(Cl)ccc1Cl)CC(=O)Nc1cccc(F)c1 | -0.61
8 | Cc1cc(NCCOCCS(C)(=O)=O)nc2ccccc12 | 1.59
9 | CC(C1CC1)N(CC(=O)NCC(F)(F)F)C1CC1 (stereo not given) | 13.2
10 | Cc1cccc(NCc2ncc(C(C)(C)C)o2)c1 | 12.6
11 | CC(=O)N1CCCN(C(=O)Cc2c(C)nc(C)[nH]c2=O)CC1 | -0.651
12 | CCC(C)CNCC1(S(C)(=O)=O)CCOCC1 (stereo not given) | -1.98
13 | CC(CN1CCOCC1)OC(=O)c1cccc2cn[nH]c12 (stereo not given) | 12
14 | CC(NCCCN1CCCN(C)CC1)C(C)(C)C (stereo not given) | -11.8
15 | COCCOCCCNC(=O)c1cc(Cl)cc2cccnc12 | -18.1
16 | CC(CC1CC1)NCCCN1CCCN(C)CC1 (stereo not given) | 7.35
17 | O=S(=O)(Cc1ccccc1)NCCc1nnc2n1CCC2 | -7.99
18 | O=S(=O)(Cc1ccc(F)cc1)NCc1nnc2n1CCC2 | -24.3
19 | Cc1ccc(C)n1-c1c(C(=O)NCC(c2ccsc2)N(C)C)cnn1C (stereo not given) | -14.4
20 | Cn1nnnc1SCCC(=O)NCC1Cc2ccccc2O1 (stereo not given) | -23.7
21 | Cc1ccc(C)n1-c1c(C(=O)NCC(C)N(C)C)cnn1C (stereo not given) | -0.908
22 | CCOc1cccc(CNC(=O)c2cnn(CC)c2C(F)(F)F)c1 | -2.57

Row | SMILES | cytotoxicity at 70.5 h [%]
23 | CC(=O)c1ccc(-n2c(C)cn(CCC(=O)NC(N)=O)c2=O)cc1 | -14.8
24 | CCN(Cc1ccc(F)cc1Cl)C1CCS(=O)(=O)C1 (stereo not given) | -19.3
25 | COc1cc(I)c(Cl)cc1C(=O)N(C)CC(C)(C)O | 21
26 | O=C(Cn1cc(I)cn1)NCC1CCC1 | -20.2
27 | O=C(NCCC1CC1)NCc1cccc(-n2ccnc2)c1 | -2.8
28 | Cc1ccc(CCCC(=O)N2CCC(CS(N)(=O)=O)CC2)s1 | -18.3
29 | Cc1cc(F)c(S(=O)(=O)Nc2ccn(CCCC#N)n2)cc1F | -16
30 | Cc1cc(F)cc(S(=O)(=O)Nc2ccn(CCCC#N)n2)c1 | -9.51
31 | Cc1cncc(NC(=O)c2ccc(CN3CCC(CO)CC3)cc2)c1 | -16.3
32 | CCS(=O)(=O)c1ccc2c(c1)N1CCS(=O)(=O)N=C1O2 | -15.4
33 | NS(=O)(=O)CC1CCCN(C(=O)CCCC2CCCC2)C1 (stereo not given) | -12.7
34 | COCCCN(Cc1ccccc1Cl)C1CCS(=O)(=O)C1 (stereo not given) | 25.3
35 | N#Cc1cccc(CN(CCO)Cc2ccsc2)c1 | -20.4
36 | CCOc1cc(C(=O)O)cc(-c2ccccc2)c1OC | -1.01
37 | O=C(CNC(=O)C1CC1)NCC(F)(F)F | 1.27
38 | N#Cc1ccc(N2CCN(c3nccs3)CC2)nc1 | -0.838
39 | N#Cc1ccc(N2CCCN(c3nccs3)CC2)nc1 | 1.75
40 | CN1CCC(CNC(=O)c2cccc(NC(N)=O)c2)c2ccccc21 (stereo not given) | -2.27
41 | Cc1ccc(C(=O)NCC2CCN(C)c3ccccc32)c(=O)[nH]1 (stereo not given) | -2.94
42 | CCn1c(CN2CCOC(Cn3cccn3)C2)nc2c(F)cccc21 (stereo not given) | -3.89
43 | CCc1noc(CN(C)CCC(=O)Nc2ccccc2C#N)n1 | -1.02
44 | CC(C)Oc1ccccc1CNC(=O)c1[nH]ncc1Br | 7

Row | SMILES | cytotoxicity at 70.5 h [%]
45 | Cn1c(CN2CCOC(Cn3cncn3)C2)nc2ccccc21 (stereo not given) | 13.6
46 | CCCS(=O)(=O)NC(=O)c1ccc(Br)o1 | 1.65
47 | Clc1cccc(-c2noc(CCN3CCN(c4ccncc4)CC3)n2)c1 | 4
48 | O=S(=O)(Nc1ccccn1)c1cc(Cl)cc2c1OCC2 | 4.53
49 | O=S(=O)(Nc1nccs1)c1cc(Cl)cc2c1OCC2 | 2.51
50 | Cc1cc(CN2CC[C@H]3OCC[C@@]3(C(=O)N3CCOCC3)C2)no1 | -5
51 | CN(C)[C@@H]1CCN(S(C)(=O)=O)[C@H]1Cc1ccccc1 | 1.53
52 | CC(C)N(C)Cc1nnc2n1CCCN(c1cnccn1)C2 | -4.42
53 | O=C([C@H]1CC[C@@H]2[C@@H](CCN2c2ncccn2)O1)N1CCCCO1 | -1.66
54 | O=C(Cc1cccs1)N1Cc2nc(CN3CCCC3)oc2C1 | 13
55 | O=C(Cc1cccs1)N1Cc2nc(COCC3CC3)oc2C1 | 0.985
56 | NC(=O)N1CCc2ncc(CNC(=O)CC3CC3)n2CC1 | 1.82
57 | CC(C)n1nc(CN2CCCC2=O)c2c1CN(C(=O)c1ccco1)C2 | -5.68
58 | Cn1ncc2c1C(COCC1CC1)CN(c1ncc(F)cn1)C2 (stereo not given) | -4.28
59 | Cc1nc(Cn2c3c(ccc2=O)CC(NC(N)=O)CC3)cs1 (stereo not given) | 5.59
60 | CCN1CCOCC2(C1)CN(C(=O)c1c(C)noc1C)CCO2 (stereo not given) | -3.94
61 | CS(=O)(=O)N1CCO[C@@H]2CN(C(=O)c3ccnnc3)C[C@@H]2C1 | -2.42
62 | CS(=O)(=O)N1C[C@H]2CN(CC3CC3)C(=O)[C@H]2C1 | -2.81
63 | CCOC1COC2(CCN(c3ncc(C)cn3)CC2)C1 (stereo not given) | -2.14
64 | CS(=O)(=O)N1CCO[C@@H]2CN(C(=O)c3cccnc3)C[C@@H]2C1 | -2.16
65 | CC(=O)N1CCOC2(CCN(C(=O)c3cnoc3C)CC2)C1 | 2.68
66 | Cn1cc(CN2C[C@@H]3[C@@H](C2)OCC(=O)N3Cc2ccncc2)cn1 | -6.23

Row | SMILES | cytotoxicity at 70.5 h [%]
67 | C[C@@H]1CN(C(=O)c2ccc[nH]2)C[C@]12CCN(CCN1CCCC1)C2=O | -5.21
68 | COCCN1C(=O)CC[C@@H]2[C@@H]1CCN2Cc1c(C)noc1C | -5.73
69 | COCCN1CCC2(C1)c1ccccc1S(=O)(=O)N2C (stereo not given) | -10.1
70 | CNC(=O)COC1COC2(CCN(Cc3cccnc3)CC2)C1 (stereo not given) | -9.98
71 | O=C(c1cscn1)N1CCc2ncnc(-c3cccnc3)c2CC1 | 18.5
72 | O=C1N(Cc2ccncc2)CCC12CCCN(c1ncc(F)cn1)C2 (stereo not given) | 14.6
73 | CN(C)[C@@H]1CCN(S(=O)(=O)C2CC2)[C@H]1Cc1ccccc1 | 1.77
74 | CC(C)CS(=O)(=O)N1C[C@H]2C[C@H](C(=O)N3CCN(C)CC3)[C@@H](C1)O2 | -3.23
75 | CCS(=O)(=O)N1CCOC2(CCCN(Cc3ccccn3)C2)C1 (stereo not given) | -1.63
76 | Fc1cnc(N2CCCn3cnc(COc4cccnc4)c3C2)nc1 | -2.49
77 | CCS(=O)(=O)N1CCCn2cnc(COc3cccnc3)c2C1 | -2.04
78 | CCCS(=O)(=O)N1CCOC2(CCCN(Cc3ccccn3)C2)C1 (stereo not given) | -2.44
79 | CS(=O)(=O)NC[C@H]1OC[C@H]2CN(CCc3ccccc3)CC[C@H]21 | -0.811
80 | CC(C)CN1C[C@H]2C[C@H](C(=O)N3CCCC3)[C@@H](C1)O2 | -2.66
81 | O=S(=O)(C1CC1)N1CCOC2(CCCN(Cc3ccccn3)C2)C1 (stereo not given) | -5.41
82 | Cc1cnc(N2CCCn3c(nnc3CN(C)C(C)C)C2)nc1 | -1.83
83 | O=C1N(CC2CC2)CCC12CCCN(c1ncc(F)cn1)C2 (stereo not given) | -3.11
84 | Cc1ccc(N2CC[C@H]3O[C@H](C(=O)N4CCCCO4)CC[C@H]32)nn1 | -3.7
85 | c1csc(CN2C[C@H](OCC3CCOCC3)[C@H]3COC[C@H]32)n1 | 14.6
86 | c1cc(CN2C[C@H](OCC3CCOCC3)[C@H]3COC[C@H]32)co1 | 12.4
87 | CN(C)[C@@H]1CN(C(=O)Cc2ccccc2)[C@@H]2CCCO[C@H]12 | 15.5
88 | CN(C)C(=O)CO[C@H]1CN(Cc2nccs2)[C@@H]2COC[C@H]12 | -9.59

Row | SMILES | cytotoxicity at 70.5 h [%]
89 | CN(C)[C@@H]1CN(C(=O)Cc2cccs2)[C@@H]2CCCO[C@H]12 | -5.81
90 | COCCN1CCc2ncnc(NC(C)C)c2CC1 | -5.11
91 | Cc1cnc(N2CC[C@H]3[C@@H]2CCC(=O)N3c2ccccc2)nc1 | 5.23
92 | Fc1cnc(N2CCO[C@H]3[C@H](OCCN4CCCC4)CC[C@@H]32)nc1 | -8.48
93 | CC(C)CCN1C[C@H]2C[C@H](C(=O)NCC(C)C)[C@@H](C1)O2 | -2.84
94 | Cn1cc(-c2ncc3c(c2C(=O)O)CCN(Cc2ccco2)C3)cn1 | -5.93
95 | CN(C)C(=O)CO[C@H]1CN(Cc2ccsc2)[C@@H]2COC[C@H]12 | -1.85
96 | O=C(c1cscn1)N1CC[C@@H]2[C@@H]1CCN2CC1CCOC1 (stereo not given in full) | -1.02
97 | O=C(c1cscn1)N1CC[C@@H]2[C@@H]1CCN2C1CCOCC1 | -3.43
98 | COCCNC(=O)[C@@]12CCO[C@@H]1CCN(Cc1c(C)noc1C)C2 | -5.87
99 | Cn1cc(CN2CCC3(CC(=O)N(c4ccc5c(c4)OCO5)C3)C2)cn1 (stereo not given) | -9.01
100 | O=C1N(Cc2cccnc2)CCC12CCCN(c1ncccn1)C2 (stereo not given) | 17.3
101 | c1cncc(COCC2CC[C@H]3[C@H]2OCCN3Cc2ccoc2)c1 (stereo not given in full) | 11.3
102 | Cc1ccc(CN2CCO[C@H]3[C@@H](OCc4cccnc4)CC[C@@H]32)o1 | -14.9
103 | CCn1ncc2c1C(COC)CN(c1ncc(F)cn1)C2 (stereo not given) | -9.93
104 | Cn1nc(COCC2CC2)c2c1CN(CC1CC1)CC2 | -0.347
105 | O=C(C1CC1)N1Cc2[nH]nc(COCc3cccnc3)c2C1 | -0.809
106 | CN(C)c1ncc2c(c1C(=O)O)CCN(Cc1ccco1)C2 | -4.04
107 | CN(C)C(=O)c1n[nH]c2c1CN(CC1CCC1)C2 | -1.39
108 | CN(C)C(=O)c1n[nH]c2c1CN(CC1CCCCC1)C2 | -2.71
109 | CO[C@@H]1CCN(Cc2cccs2)[C@@H]2CN(Cc3ccncc3)C[C@@H]21 | -3.45
110 | CO[C@H]1CCN(Cc2c(C)noc2C)[C@@H]2CN(Cc3cccnc3)C[C@H]12 | -7.23
